Earlier results, collected in patent US8178083B2, “Treatment of optic neuritis” (Ares Trading, S.A., priority 2005, dated 2012).

Tested on: patients with acute isolated unilateral optic neuritis

Question: Which “risk of a new optic neuritis attack in the fellow eye versus placebo-treated group” value (oral prednisone 1 mg/kg per day for 14 days) does the source give for `C[C@]12C=CC(=O)C=C1CC[C@@H]1[C@@H]2C(=O)C[C@@]2(C)[C@H]1CC[C@]2(O)C(=O)CO` [prednisone] here?
Answer: Its value is “more than double”.

Question: What about the “patients who developed new bouts of optic neuritis (in either the affected or fellow eye)” value (within 2 years of follow-up) of the same compound?
Answer: Its value is 30%.
